Numbered stars: 1 amine (or outer) side, 2 acyl side, 3 side chain; on linkers, the order of the positions; unused ones are H or OH. Square brackets hold non-standard residues; d marks the D form. Side chains are listed from the residue outwards. Peptide text beside a SMILES is read from it. * marks the point of attachment. Ala(1H-tetrazol-5-yl) = N[C@@H](Cc1nnn[nH]1)C(=O)O; C20 diacid = O=C(O)CCCCCCCCCCCCCCCCCCC(=O)*; γGlu = O=C(O)[C@H](CCC(=O)[*:2])N[*:1]; αMeF = C[C@](N)(Cc1ccccc1)C(=O)O; αMeL = CC(C)C[C@](C)(N)C(=O)O; AEEA = NCCOCCOCC(=O)O; Aib = CC(C)(N)C(=O)O
Key:
human Gcg receptor = target: T1, human Gcg receptor (Homo sapiens, UniProt P47871); test: [125I]-Glucagon binding (SPA), human Gcg receptor; settings: read-out: hGLcgR Ki, nM (SEM, n)
T1 construct: expressed in transfected cells; crude membranes
In short: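 Cell pellets were lysed in hypotonic Tris buffer, pH 7.5, homogenized, and spun at low then high speed to give crude membranes. Ki was derived from the fitted IC50.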

human GIP receptor = target: T2, human GIP receptor (Homo sapiens, UniProt P48546); test: [125I]-GIP binding (SPA), human GIP receptor; settings: read-out: hGIPR Ki, nM (SEM, n)
T2 construct: expressed in transfected cells; crude membranes
T2 sequence (P48546 22-466): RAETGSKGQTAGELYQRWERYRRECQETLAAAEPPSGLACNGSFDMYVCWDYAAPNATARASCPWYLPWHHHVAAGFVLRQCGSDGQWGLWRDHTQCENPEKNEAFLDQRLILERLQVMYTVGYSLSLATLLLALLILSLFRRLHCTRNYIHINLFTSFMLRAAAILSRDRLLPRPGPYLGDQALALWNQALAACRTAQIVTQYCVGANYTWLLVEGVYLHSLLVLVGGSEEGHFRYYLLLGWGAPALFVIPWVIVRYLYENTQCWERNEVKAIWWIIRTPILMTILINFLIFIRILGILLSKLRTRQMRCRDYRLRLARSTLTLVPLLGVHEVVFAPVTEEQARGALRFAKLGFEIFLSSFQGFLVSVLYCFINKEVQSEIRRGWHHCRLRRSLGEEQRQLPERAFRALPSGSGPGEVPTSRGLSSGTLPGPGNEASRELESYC

[1] = target: human GLP-1 receptor (GLP-1R) (Homo sapiens, UniProt P43220); test: cAMP pharmacological functional assay in presence of casein, hGLP-1R; type: cell-based; settings: HEK293 cells expressing hGLP-1R, 0.1% Casein, geometric mean; read-out: hGLP1R cAMP Rel EC50 nM (SEM, n)
[2] = target: T3, gastric inhibitory peptide receptor (GIPR) (Homo sapiens, UniProt P48546); test: cAMP pharmacological functional assay in presence of casein, hGIPR; type: cell-based; settings: HEK293 cells expressing hGIPR, 0.1% Casein, geometric mean; read-out: hGIPR cAMP Rel EC50 nM (SEM, n)
T3 sequence (P48546 22-466): T2 sequence (P48546 22-466)

human GLP-1R = human GLP-1R (Homo sapiens, UniProt P43220); test: [125I]-GLP-1 binding (SPA), human GLP-1 receptor; parameters: expressed in transfected cells; crude membranes; settings: read-out: hGLP1R Ki, (nM) (SEM, n)
In short: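 Assay buffer: HEPES 25 mM, pH 7.4, CaCl2 2.5 mM, MgCl2 1 mM, with EDTA-free protease inhibitors. Receptor came from crude cell membranes prepared by homogenization and centrifugation at 4° C. IC50s came from four-parameter fits (maximum, minimum, IC50, Hill slope) and were expressed as Ki geometric means with SEM.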

T1 sequence (P47871 26-477): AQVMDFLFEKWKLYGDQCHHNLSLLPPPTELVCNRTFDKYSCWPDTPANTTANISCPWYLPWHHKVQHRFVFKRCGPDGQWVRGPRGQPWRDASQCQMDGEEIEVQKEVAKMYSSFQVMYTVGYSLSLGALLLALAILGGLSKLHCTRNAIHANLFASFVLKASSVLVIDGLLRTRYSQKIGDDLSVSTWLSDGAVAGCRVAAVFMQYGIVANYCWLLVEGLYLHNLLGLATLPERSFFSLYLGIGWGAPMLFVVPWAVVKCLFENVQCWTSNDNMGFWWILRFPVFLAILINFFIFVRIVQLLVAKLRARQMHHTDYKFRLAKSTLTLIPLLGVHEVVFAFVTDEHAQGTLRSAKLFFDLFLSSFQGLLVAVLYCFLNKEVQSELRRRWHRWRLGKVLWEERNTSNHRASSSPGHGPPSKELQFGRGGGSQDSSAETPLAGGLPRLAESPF
Chain of human GLP-1 receptor (GLP-1R) (P43220 24-463): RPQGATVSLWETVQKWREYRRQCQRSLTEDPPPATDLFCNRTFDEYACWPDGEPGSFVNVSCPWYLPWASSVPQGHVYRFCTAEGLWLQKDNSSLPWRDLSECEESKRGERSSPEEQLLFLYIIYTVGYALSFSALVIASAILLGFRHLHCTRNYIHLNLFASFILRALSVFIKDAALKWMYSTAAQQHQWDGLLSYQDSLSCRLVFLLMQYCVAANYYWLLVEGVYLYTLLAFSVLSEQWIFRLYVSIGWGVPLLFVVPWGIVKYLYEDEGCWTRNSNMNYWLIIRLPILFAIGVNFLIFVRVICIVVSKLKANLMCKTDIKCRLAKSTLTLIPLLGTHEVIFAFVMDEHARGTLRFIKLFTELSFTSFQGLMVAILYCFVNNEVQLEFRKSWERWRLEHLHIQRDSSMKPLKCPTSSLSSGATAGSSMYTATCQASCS
Chain of human GLP-1R (P43220 24-463): as above

| SMILES | Ki (human Gcg receptor) [nM] | Ki (human GIP receptor) [nM] | EC50 [1] [nM] | EC50 [2] [nM] | Ki (human GLP-1R) [nM] |
| --- | --- | --- | --- | --- | --- |
| CC[C@H](C)[C@H](NC(=O)[C@H](CC(C)C)NC(=O)[C@H](Cc1ccc(O)cc1)NC(=O)[C@H](CCC(=O)O)NC(=O)[C@@H](NC(=O)[C@H](Cc1ccccc1)NC(=O)[C@H](C)NC(=O)C(C)(C)NC(=O)[C@H](CCC(N)=O)NC(=O)[C@H](C)NC(=O)[C@H](CCCCNC(=O)COCCOCCNC(=O)COCCOCCNC(=O)CC[C@H](NC(=O)CCCCCCCCCCCCCCCCCCC(=O)O)C(=O)O)NC(=O)[C@H](CCC(=O)O)NC(=O)[C@H](CC(=O)O)NC(=O)[C@H](CC(C)C)NC(=O)[C@](C)(CC(C)C)NC(=O)[C@@H](NC(=O)[C@H](CO)NC(=O)[C@H](Cc1ccc(O)cc1)NC(=O)[C@H](CC(=O)O)NC(=O)[C@H](CO)NC(=O)[C@@H](NC(=O)[C@](C)(Cc1ccccc1)NC(=O)[C@@H](NC(=O)CNC(=O)[C@H](Cc1nn[nH]n1)NC(=O)C(C)(C)NC(=O)[C@@H](N)Cc1ccc(O)cc1)[C@@H](C)O)[C@@H](C)O)[C@@H](C)CC)[C@@H](C)CC)C(=O)N[C@@H](CCC(=O)O)C(=O)NCC(=O)NCC(=O)N1CCC[C@H]1C(=O)N[C@@H](CO)C(=O)N[C@@H](CO)C(=O)NCC(=O)N[C@@H](C)C(=O)N1CCC[C@H]1C(=O)N1CCC[C@H]1C(=O)N1CCC[C@H]1C(=O)N[C@@H](CO)C(N)=O [Example 120] (H-Y[Aib][Ala(1H-tetrazol-5-yl)]GT[αMeF]TSDYSI[αMeL]LDEK([AEEA-AEEA-γGlu-C20 diacid])AQ[Aib]AFIEYLIEGGPSSGAPPPS-NH2; N-terminus assumed) | 93.6 | 0.11 | 0.201 | 0.122 | 11.7 |
| CC[C@H](C)[C@H](NC(=O)[C@H](CC(C)C)NC(=O)C(C)(Cc1ccc(O)cc1)NC(=O)[C@@H](CCC(=O)O)NC(=O)[C@@H](NC(=O)[C@H](Cc1ccccc1)NC(=O)[C@H](C)NC(=O)C(C)(C)NC(=O)[C@H](CCC(N)=O)NC(=O)[C@H](C)NC(=O)[C@H](CCCCNC(=O)COCCOCCNC(=O)COCCOCCNC(=O)[C@@H](N)CCCCNC(=O)CCCCCCCCCCCCCCCCCCC(=O)O)NC(=O)[C@H](CCCN)NC(=O)[C@H](CC(=O)O)NC(=O)[C@H](CC(C)C)NC(=O)C(C)(CC(C)C)NC(=O)[C@@H](NC(=O)[C@H](CO)NC(=O)[C@H](Cc1ccncc1)NC(=O)[C@H](CC(=O)O)NC(=O)[C@H](CO)NC(=O)[C@@H](NC(=O)C(C)(Cc1ccccc1F)NC(=O)[C@@H](NC(=O)CNC(=O)[C@H](CCC(=O)O)NC(=O)C(C)(C)NC(=O)[C@@H](N)Cc1ccc(O)cc1)[C@@H](C)O)[C@@H](C)O)[C@@H](C)CC)[C@@H](C)CC)C(=O)N[C@@H](C)C(=O)NCC(=O)NCC(=O)N1CCC[C@H]1C(=O)N[C@@H](CO)C(=O)N[C@@H](CO)C(=O)NCC(=O)N[C@@H](C)C(=O)N1CCC[C@H]1C(=O)N1CCC[C@H]1C(=O)N1CCC[C@H]1C(=O)N[C@@H](CO)C(N)=O (stereo partly shown) [Example 252] | 26 | 0.00971 | 0.0483 | 0.093 | 0.383 |
| CC[C@H](C)[C@H](NC(=O)[C@H](CC(C)C)NC(=O)[C@H](Cc1ccc(O)cc1)NC(=O)[C@H](CCC(=O)O)NC(=O)[C@@H](NC(=O)[C@H](Cc1ccccc1)NC(=O)[C@H](C)NC(=O)C(C)(C)NC(=O)[C@H](CCC(N)=O)NC(=O)[C@H](C)NC(=O)[C@H](CCCCNC(=O)COCCOCCNC(=O)COCCOCCNC(=O)CC[C@H](NC(=O)CCCCCCCCCCCCCCCCCCC(=O)O)C(=O)O)NC(=O)[C@H](CCC(=O)O)NC(=O)[C@H](CC(=O)O)NC(=O)[C@H](CC(C)C)NC(=O)[C@](C)(CC(C)C)NC(=O)[C@@H](NC(=O)[C@H](CO)NC(=O)[C@H](Cc1ccc(O)cc1)NC(=O)[C@H](CC(=O)O)NC(=O)[C@H](CO)NC(=O)[C@@H](NC(=O)[C@](C)(Cc1ccccc1)NC(=O)[C@@H](NC(=O)CNC(=O)[C@H](CCC(=O)O)NC(=O)C(C)(C)NC(=O)[C@@H](N)Cc1ccc(O)cc1)[C@@H](C)O)[C@@H](C)O)[C@@H](C)CC)[C@@H](C)CC)C(=O)N[C@@H](CCC(=O)O)C(=O)NCC(=O)NCC(N)=O [Example 100] (H-Y[Aib]EGT[αMeF]TSDYSI[αMeL]LDEK([AEEA-AEEA-γGlu-C20 diacid])AQ[Aib]AFIEYLIEGG-NH2; N-terminus assumed) | 44 | 0.115 | 0.079 | 0.12 | 4.13 |
| CC[C@H](C)[C@H](NC(=O)[C@H](CC(C)C)NC(=O)[C@H](Cc1ccc(O)cc1)NC(=O)[C@H](CCC(=O)O)NC(=O)[C@@H](NC(=O)[C@H](Cc1ccccc1)NC(=O)[C@H](C)NC(=O)C(C)(C)NC(=O)[C@H](CCC(N)=O)NC(=O)[C@H](C)NC(=O)[C@H](CCCCNC(=O)COCCOCCNC(=O)COCCOCCNC(=O)CC[C@H](NC(=O)CCCCCCCCCCCCCCCCCCC(=O)O)C(=O)O)NC(=O)[C@H](CCCCN)NC(=O)[C@H](CC(=O)O)NC(=O)[C@H](CC(C)C)NC(=O)[C@H](CC(C)C)NC(=O)[C@@H](NC(=O)[C@H](CO)NC(=O)[C@H](Cc1ccc(O)cc1)NC(=O)[C@H](CC(=O)O)NC(=O)[C@H](CO)NC(=O)[C@@H](NC(=O)[C@H](Cc1ccccc1)NC(=O)[C@@H](NC(=O)CNC(=O)[C@H](CC(N)=O)NC(=O)C(C)(C)NC(=O)[C@@H](N)Cc1c[nH]cn1)[C@@H](C)O)[C@@H](C)O)[C@@H](C)CC)[C@@H](C)CC)C(=O)N[C@@H](CCC(=O)O)C(=O)NCC(=O)NCC(=O)N1CCC[C@H]1C(=O)N[C@@H](CO)C(=O)N[C@@H](CO)C(=O)NCC(=O)N[C@@H](C)C(=O)N1CCC[C@H]1C(=O)N1CCC[C@H]1C(=O)N1CCC[C@H]1C(=O)N[C@@H](CO)C(N)=O [Example 135] (H-H[Aib]NGTFTSDYSILLDKK([AEEA-AEEA-γGlu-C20 diacid])AQ[Aib]AFIEYLIEGGPSSGAPPPS-NH2) | 454 | 0.161 | 0.131 | 0.373 | 3.01 |
| CC[C@H](C)[C@H](NC(=O)[C@H](CCCCN)NC(=O)[C@H](CC(=O)O)NC(=O)[C@H](CC(C)C)NC(=O)[C@H](CCCCNC(=O)COCCOCCNC(=O)COCCOCCNC(=O)CC[C@H](NC(=O)CCCCCCCCCCCCCCCCCCC(=O)O)C(=O)O)NC(=O)[C@@H](NC(=O)[C@H](CO)NC(=O)[C@H](Cc1ccc(O)cc1)NC(=O)[C@H](CC(=O)O)NC(=O)[C@H](CO)NC(=O)[C@@H](NC(=O)[C@H](Cc1ccccc1)NC(=O)[C@@H](NC(=O)CNC(=O)[C@H](CCC(=O)O)NC(=O)C(C)(C)NC(=O)[C@@H](N)Cc1ccc(O)cc1)[C@@H](C)O)[C@@H](C)O)[C@@H](C)CC)C(=O)N[C@@H](C)C(=O)N[C@@H](CCC(N)=O)C(=O)NC(C)(C)C(=O)N[C@@H](C)C(=O)N[C@@H](Cc1ccccc1)C(=O)N[C@H](C(=O)N[C@@H](CCC(=O)O)C(=O)N[C@@H](Cc1ccc(O)cc1)C(=O)N[C@@H](CC(C)C)C(=O)N[C@H](C(=O)N[C@@H](CCC(=O)O)C(=O)NCC(=O)NCC(=O)N1CCC[C@H]1C(=O)N[C@@H](CO)C(=O)N[C@@H](CO)C(=O)NCC(=O)N[C@@H](C)C(=O)N1CCC[C@H]1C(=O)N1CCC[C@H]1C(=O)N1CCC[C@H]1C(=O)N[C@@H](CO)C(N)=O)[C@@H](C)CC)[C@@H](C)CC [Example 26] (H-Y[Aib]EGTFTSDYSIK([AEEA-AEEA-γGlu-C20 diacid])LDKIAQ[Aib]AFIEYLIEGGPSSGAPPPS-NH2) | > 960 | 0.176 | 0.293 | 0.251 | 4.22 |

From patent US12252524B2, “GIP/GLP1 co-agonist compounds” (Eli Lilly and Company, priority 2018, dated 2025)
